Assay results as given in patent publication US11096923B2, “Pharmaceutical composition containing polymyxin B/trimethoprim based therapeutics” (University of Rochester, priority 2016, dated 2021).
Where two headings read alike, the source gives them in different places.

Assays:
[1] = tested on: planktonic P. aeruginosa cells; assay: Antimicrobial kill curves; format: cell-based, Pseudomonas aeruginosa; details: 2× MIC, 4 hours post-treatment
Method: Overnight cultures of the indicated organism were used to inoculate (1:100 dilution) 100 ml of fresh media and grown to mid-exponential phase. […] Aliquots were taken at 1, 2, 3, 4, and 24 hours, serial diluted and plated for colony forming units.

S. aureus strain UAMS-1 = format: cell-based, Staphylococcus aureus; details: 1×MIC, laser microbial growth monitor over 40 hours
Method: (§1) Spontaneous resistance to the indicated test agent(s) was measured for P. aeruginosa strain PA01 and S. aureus strain UAMS-1 using two liquid culture approaches. […] Growth was measured using the BacterioScan s216Dx laser microbial growth monitor, with optical measurements taken every 3 minutes over 40 hours. Following 40 hours, samples were plated for to measure viable colony forming units and re-tested for drug susceptibility.
(§2) To determine if these colonies represented untreated cells vs. resistant cells, 8 individual colonies from each treatment condition were randomly selected and tested for MICs.
(§3) Using an automated laser microbial growth monitor, the optical profiles of these cultures were measured continuously over time. […] Again 8 colonies were selected at random from each treatment group.

P. aeruginosa = assay: MIC of clinical P. aeruginosa ocular isolates (antibiotic susceptibility profiles); format: cell-based, Pseudomonas aeruginosa; details: Pseudomonas aeruginosa, read-out: Minimum Inhibitory Concentration
Source text: A series of genotyping and biological assays were used as a preliminary means to evaluate the clonality of clinical P. aeruginosa isolates collected, as follows. Genomic DNA was purified from each isolate using Qiagen DNeasy kits (Hilden, Germany) and used as a template for polymerase chain reactions to detect the presence of the virulence factors exoS, exoY, exoU, exoT, and perV using previously published primers (Table 1). See Allewelt M, Coleman F T, Grout M, Priebe G P, Pier G B. Acquisition of expression of the Pseudomonas aeruginosa ExoU cytotoxin leads to increased bacterial virulence in a murine model of acute pneumonia and systemic spread. Infection and immunity 2000; 68:3998-4004, Lomholt J A, Poulsen K, Kilian M. Epidemic population structure of Pseudomonas aeruginosa: evidence for a clone that is pathogenic to the eye and that has a distinct combination of virulence factors. Infection and immunity 2001; 69, and Ledbetter E C, Mun J J, Kowbel D, Fleiszig S M. Pathogenic phenotype and genotype of Pseudomonas aeruginosa isolates from spontaneous canine ocular infections. Investigative ophthalmology & visual science 2009; 50. […] See Institute C. Performance Standards for Antimicrobial Susceptibility Testing: Twenty-fifth Informational Supplement. Each isolate's ability to form biofilms was quantified. To do so, wells of a polystyrene plate containing 72-hour established biofilms were washed with 0.8% NaCl to remove non adherent cells and stained with crystal violet. To quantify biofilm staining, plates were washed 3 times with H2O, stain was suspended in 30% glacial acetic acid and the optical density (OD600nm) of each well was determined using an automated plate reader, as previously described. See Jacobs A C, Blanchard C E, Catherman S C, Dunman P M, Murata Y. An ribonuclease T2 family protein modulates Acinetobacter baumannii abiotic surface colonization. PloS one 2014; 9.

[2] = tested on: P. aeruginosa strain PA01; format: cell-based, Pseudomonas aeruginosa
Method: as §1, §2, §3

[3] = tested on: S. aureus UAMS-1 biofilms; assay: Biofilm susceptibility; format: cell-based, Staphylococcus aureus; details: established S. aureus biofilm, 24 hrs treatment, 32×MIC
Source text: Bacterial strains used in these studies include the conventional laboratory strains Pseudomonas aeruginosa PA01 and Staphylococcus aureus UAMS-1, both of which are antibiotic susceptible and capable of forming robust biofilms. See […], Thomas J R, Nelson […]. Role of the accessory gene regulator (agr) in pathogenesis of staphylococcal osteomyelitis. Infection and immunity 1995; 63:3373-3380. Seven clinical keratitis isolates of Pseudomonas aeruginosa, were collected from the Flaum Eye Institute, Rochester N.Y. and 25 clinical isolates of Staphylococcus aureus from geographically distinct regions of the country where purchased from International Health Management Associates (IHMA; Schaumburg, Ill.). For experiments requiring planktonic cultures, the indicated organism was grown overnight in Luria-Bertani broth (LB; […] Biofilms were established by inoculating individual wells of flat-bottom polystyrene plates (Falcon, Corning Life Sciences; Durham, N.C.) with overnight cultures of the indicated organism into 200 ul of fresh LB to a final concentration of 1×10^7 CFU ml^-1. Plates were placed in a 37° C.-humidified incubator for 72 hours to allow static biofilm formation. Non-adherent cells were aspirated and biofilms were washed twice with phosphate-buffered saline prior to each experiment. […] After 24 hrs the remaining media and non-adherent cells were removed, biofilms were suspended in 0.8% NaCl and plated to quantify surviving bacteria. […] Biofilms were treated in increasing increments ranging from 0 to 64×MIC.

MRSA keratitis isolates = MRSA keratitis isolates collected between 1993 and 2012; cited from earlier work

With COc1c(N2C[C@@H]3CCCN[C@@H]3C2)c(F)cc2c(=O)c(C(=O)O)cn(C3CC3)c12 [Moxifloxacin, moxifloxacin] as the compound, how does the “reduction in CFU at hour 4” value [1] read?
The value was 5 log.

What about the “start of outgrowth of treated culture” value (S. aureus strain UAMS-1) of the same compound?
Its value is 26 h.

What about the MIC (P. aeruginosa; P. aeruginosa ocular isolate RW01 (cornea)) of the same compound?
Its MIC is 0.25 µg/mL.

And the MIC (P. aeruginosa; P. aeruginosa ocular isolate RW02 (cornea))?
Its MIC is 0.25 µg/mL.

And the MIC (P. aeruginosa; P. aeruginosa ocular isolate RW03 (cornea))?
The MIC was 0.25 µg/mL.

What about the MIC (P. aeruginosa; P. aeruginosa ocular isolate RW04 (conjunctiva)) of the same compound?
Its MIC is 0.25 µg/mL.

What about the MIC (P. aeruginosa; P. aeruginosa ocular isolate RW05 (cornea)) of the same compound?
Its MIC is 0.125 µg/mL.

What about the MIC (P. aeruginosa; P. aeruginosa ocular isolate RW06 (cornea)) of the same compound?
Its MIC is 0.5 µg/mL.

What about the MIC (P. aeruginosa; P. aeruginosa ocular isolate RW07 (cornea)) of the same compound?
The MIC was 0.125 µg/mL.

And the “resistance of recovered cells on MIC retest” value [2]?
Its value is 2 ×MIC.

And the “time until growth of treated culture” value ([2]; P. aeruginosa, 1×MIC, laser microbial growth monitor over 40 hours)?
The value was “approximately 22 hours”.

And the “reduction in biofilm-associated CFU” value [3]?
Its value is 4 log.

Which isolates displaying resistance (MRSA keratitis isolates) does the source give for COc1cc(Cc2cnc(N)nc2N)cc(OC)c1OC [trimethoprim] here?
Its isolates displaying resistance is 11.5%.
